Where a SMILES comes first, the peptide text is derived from it.
Key:
[1] = Peptide hydrogel formation, vial-inverting method; type: physicochemical; design: key to EXP / GELATION: 0: no hydrogel; 1: hydrogel; details: for State: ultrasonication, standing 48 h; for Concentration: concentration at which the state was recorded: lowest of 30, 60, 90, 120 mM that gave a gel, 120 mM for non-gelating peptides; for GELATION: 1 = hydrogel, 0 = no hydrogel
Description: After validating the efficiency of APHC in predicting tetrapeptide hydrogels, we detailed the phase state of 165 synthesized tetrapeptides and the observed assembly behavior in an aqueous solution.
This work defines hydrogel formation as a self-supporting, non-flowing mixture of water and hydrogelator by the vial-inverting method. All purified tetrapeptides were dissolved in ultrapure water (to form a 30 mM solution initially), followed by the stepwise addition of 1 N NaOH solution to adjust the overall aqueous pH to 6.5–8.5. Meanwhile, a short-term ultrasonication treatment was applied after each pH adjustment to facilitate peptide solubilization and speed up peptide self-assembly. […] The mixture was allowed to stand in for another 48 h for complete hydrogelation. Upon the absence of gelation phenomenon during the aforementioned loops, we increased the peptide concentration (60 mM, 90 mM, and 120 mM were selected) and re-started such gelation operation loop to explore their gelation feasibility.

[2] = Transmission electron microscope (negative staining) of peptide assemblies; details: for Morphology: TEM, negative staining with uranyl acetate, 120 kV; for morphology by TEM (in words): aqueous solution or hydrogel, negative staining
Description: We used the negative staining technique to observe the morphologies formed by peptides. A micropipette was used to load 10 μL of sample solution to a carbon-coated copper grid, and we used a piece of filter paper to remove the excess solution. After rinsing the grid with the deionized water, we used uranyl acetate to stain the sample for 1 minute and then rinsed the grid with deionized water again.

[3] = 120 mM peptide (highest tested) in ultrapure water, pH 6.5-8.5 (1 N NaOH), vial-inverting method, precipitate, sol, suspension = no gel
[4] = peptide concentration 120 mM, vial-inverting method
[5] = 30 mM peptide in ultrapure water, pH adjusted to 6.5-8.5 with 1 N NaOH, vial-inverting method, concentration raised 30/60/90/120 mM until gelation
[6] = peptide concentration 30 mM, vial-inverting method
[7] = 60 mM peptide in ultrapure water, pH 6.5-8.5 (1 N NaOH), vial-inverting method, no gel at 30 mM
[8] = peptide concentration 60 mM, vial-inverting method

Row | SMILES | State [1, 3] | Concentration [1] [µM] | GELATION [1, 4] | Morphology ([2]; line of the table gives 120 mM) | State [1, 5] | GELATION [1, 6] | also measured
1 | N[C@@H](CS)C(=O)N[C@@H](Cc1c[nH]c2ccccc12)C(=O)N[C@@H](Cc1c[nH]cn1)C(=O)N[C@@H](Cc1ccc(O)cc1)C(=O)O [CWHY] (H-CWHY-OH) | gel | 120000 | 1 | aggregates |  |  | 
2 | CC(C)C[C@H](NC(=O)[C@H](C)NC(=O)[C@@H](N)CC(=O)O)C(=O)N[C@H](C(=O)O)C(C)C [DALV] (H-DALV-OH) | suspension | 120000 | 0 | aggregates |  |  | 
3 | N[C@@H](CC(=O)O)C(=O)N[C@@H](CC(=O)O)C(=O)N[C@@H](CC(=O)O)C(=O)N[C@@H](CC(=O)O)C(=O)O [DDDD] (H-DDDD-OH) | sol | 120000 | 0 | sphere |  |  | 
4 | CC(C)[C@H](NC(=O)[C@@H](N)CC(=O)O)C(=O)N[C@@H](Cc1ccccc1)C(=O)N[C@@H](Cc1c[nH]c2ccccc12)C(=O)O [DVFW] (H-DVFW-OH) |  | 30000 |  |  | gel | 1 | Morphology ([2]; line of the table gives 30 mM): fibre
5 | NCCCC[C@H](NC(=O)[C@H](CCCCN)NC(=O)[C@H](CCC(=O)O)NC(=O)[C@@H](N)CCC(=O)O)C(=O)O [EEKK] (H-EEKK-OH) | sol | 120000 | 0 | blank |  |  | 
6 | NCCCC[C@H](NC(=O)[C@H](Cc1ccccc1)NC(=O)[C@H](Cc1ccccc1)NC(=O)[C@@H](N)CCC(=O)O)C(=O)O [EFFK] (H-EFFK-OH) | sol | 120000 | 0 | aggregates |  |  | 
7 | C[C@H](NC(=O)[C@@H](N)Cc1ccccc1)C(=O)N[C@@H](Cc1ccccc1)C(=O)N1CCC[C@H]1C(=O)O [FAFP] (H-FAFP-OH) | suspension | 120000 | 0 | particle |  |  | 
8 | N[C@@H](Cc1ccccc1)C(=O)N[C@@H](CS)C(=O)N[C@@H](Cc1c[nH]c2ccccc12)C(=O)N[C@@H](Cc1c[nH]c2ccccc12)C(=O)O [FCWW] (H-FCWW-OH) | gel | 120000 | 1 | aggregates |  |  | 
9 | N[C@@H](Cc1ccccc1)C(=O)N[C@@H](Cc1ccccc1)C(=O)N[C@@H](Cc1ccccc1)C(=O)N[C@@H](Cc1ccccc1)C(=O)O [FFFF] (H-FFFF-OH) |  | 30000 |  |  | gel | 1 | Morphology ([2]; line of the table gives 30 mM): sheet
10 | N[C@@H](Cc1ccccc1)C(=O)N[C@@H](Cc1ccccc1)C(=O)N[C@@H](Cc1ccc(O)cc1)C(=O)N[C@@H](Cc1ccc(O)cc1)C(=O)O [FFYY] (H-FFYY-OH) |  | 30000 |  |  | gel | 1 | Morphology ([2]; line of the table gives 30 mM): needle
11 | N[C@@H](Cc1ccccc1)C(=O)NCC(=O)N[C@@H](Cc1c[nH]c2ccccc12)C(=O)N[C@@H](Cc1c[nH]c2ccccc12)C(=O)O [FGWW] (H-FGWW-OH) | precipitate | 120000 | 0 | sphere |  |  | morphology by TEM (in words) [2]: aggregates with different sizes
12 | CC(C)C[C@H](NC(=O)[C@H](Cc1c[nH]cn1)NC(=O)[C@@H](N)Cc1ccccc1)C(=O)N[C@@H](Cc1ccccc1)C(=O)O [FHLF] (H-FHLF-OH) |  | 30000 |  |  | gel | 1 | Morphology ([2]; line of the table gives 30 mM): sheet
13 | NCCCC[C@H](NC(=O)[C@@H](N)Cc1ccccc1)C(=O)N[C@@H](Cc1ccccc1)C(=O)N[C@@H](Cc1ccccc1)C(=O)O [FKFF] (H-FKFF-OH) |  | 60000 |  |  |  |  | State [1, 7]: gel; GELATION [1, 8]: 1; Morphology ([2]; line of the table gives 60 mM): sheet
14 | NCCCC[C@H](NC(=O)[C@@H](N)Cc1ccccc1)C(=O)N[C@@H](Cc1ccccc1)C(=O)N[C@@H](Cc1c[nH]c2ccccc12)C(=O)O [FKFW] (H-FKFW-OH) |  | 60000 |  |  |  |  | State [1, 7]: gel; GELATION [1, 8]: 1; Morphology ([2]; line of the table gives 60 mM): fibre
15 | CSCC[C@H](NC(=O)[C@@H](N)Cc1ccccc1)C(=O)N[C@@H](CC(C)C)C(=O)N[C@@H](Cc1ccccc1)C(=O)O [FMLF] (H-FMLF-OH) |  | 30000 |  |  | gel | 1 | Morphology ([2]; line of the table gives 30 mM): sheet
16 | CSCC[C@H](NC(=O)[C@@H](N)Cc1ccccc1)C(=O)N[C@@H](Cc1ccc(O)cc1)C(=O)N[C@@H](CO)C(=O)O [FMYS] (H-FMYS-OH) | sol | 120000 | 0 | aggregates |  |  | 
17 | CC(C)[C@H](NC(=O)[C@H](Cc1ccc(O)cc1)NC(=O)[C@H](CO)NC(=O)[C@@H](N)Cc1ccccc1)C(=O)O [FSYV] (H-FSYV-OH) |  | 60000 |  |  |  |  | State [1, 7]: gel; GELATION [1, 8]: 1; Morphology ([2]; line of the table gives 60 mM): aggregates
18 | CC[C@H](C)[C@H](NC(=O)[C@@H](NC(=O)[C@@H](N)Cc1ccccc1)C(C)C)C(=O)N[C@@H](Cc1ccc(O)cc1)C(=O)O [FVIY] (H-FVIY-OH) |  | 30000 |  |  | gel | 1 | hydrogel formation (in words) ([1]; vial-inverting method, representative hydrogels pH between 7.0 to 7.5): hydrogels; morphology by TEM (in words) [2]: entangled nanofibers
19 | C[C@H](NC(=O)[C@H](Cc1ccc(O)cc1)NC(=O)[C@@H](N)Cc1ccccc1)C(=O)N[C@@H](Cc1ccc(O)cc1)C(=O)O [FYAY] (H-FYAY-OH) | gel | 120000 | 1 | sheet |  |  | 
20 | NCC(=O)N[C@@H](Cc1ccccc1)C(=O)N[C@@H](Cc1ccccc1)C(=O)N[C@@H](Cc1ccc(O)cc1)C(=O)O [GFFY] (H-GFFY-OH) |  | 30000 |  |  | gel | 1 | Morphology ([2]; line of the table gives 30 mM): sheet
21 | NCC(=O)NCC(=O)NCC(=O)NCC(=O)O [GGGG] (H-GGGG-OH) | sol | 120000 | 0 | aggregates |  |  | 
22 | CC(C)C[C@H](NC(=O)CN)C(=O)N[C@@H](CC(C)C)C(=O)N[C@@H](Cc1ccc(O)cc1)C(=O)O [GLLY] (H-GLLY-OH) | suspension | 120000 | 0 | sheet |  |  | EXP ([1]; experimental gelation result of the synthesized peptide): 0
23 | CC(C)[C@H](NC(=O)CN)C(=O)N[C@@H](Cc1ccccc1)C(=O)N[C@@H](Cc1ccc(O)cc1)C(=O)O [GVFY] (H-GVFY-OH) |  | 30000 |  |  | gel | 1 | Morphology ([2]; line of the table gives 30 mM): fibre
24 | CC(C)C[C@H](NC(=O)[C@@H](NC(=O)CN)C(C)C)C(=O)N[C@@H](Cc1ccccc1)C(=O)O [GVLF] (H-GVLF-OH) |  | 60000 |  |  |  |  | State [1, 7]: gel; GELATION [1, 8]: 1; Morphology ([2]; line of the table gives 60 mM): rod
25 | CSCC[C@H](NC(=O)[C@H](CC(N)=O)NC(=O)[C@@H](NC(=O)CN)C(C)C)C(=O)O [GVNM] (H-GVNM-OH) | suspension | 120000 | 0 | sphere |  |  | 
26 | N[C@@H](Cc1c[nH]cn1)C(=O)N[C@@H](Cc1c[nH]cn1)C(=O)N[C@@H](Cc1c[nH]cn1)C(=O)N[C@@H](Cc1c[nH]cn1)C(=O)O [HHHH] (H-HHHH-OH) | sol | 120000 | 0 | aggregates |  |  | 

Source: paper PMC10313671, “Accelerating the prediction and discovery of peptide hydrogels with human-in-the-loop” (Nature Communications, 2023)
